Test results published in patent US12161647B2, “Treating hearing loss” (Massachusetts Eye and Ear Infirmary, priority 2012, dated 2024).

Experiments:
[1] = tested on: neonatal organ of Corti explants; assay: Neonatal organ of Corti explant culture, hair cell number; assay type: cell-based, mouse
Description: Cochleae of 3-d-postnatal C57BL/6 or Mos-iCsp3; Pou4f3-Cre double transgenic mice of both sexes were dissected in Hanks solution (Invitrogen). To obtain a flat cochlear surface preparation, the spiral ganglion, Reissner's membrane, and the most basal cochlear segment were removed. Explants were plated onto 4 well plates (Greiner Bio-One) coated with poly-L-ornithine (0.01%, Sigma) and laminin (50 μg/ml, Becton Dickinson). Cochlear explants were cultured in DMEM (Invitrogen) with 10% fetal bovine serum. All cultures were maintained in a 5% CO2/20% O2-humidified incubator (Forma Scientific).
For explants, the organs of Corti were fixed for 15 min with 4% paraformaldehyde in PBS. […] Primary antibodies were detected with secondary antibodies conjugated with Alexa 488 and 647 (Molecular Probes). The samples were stained with rhodamine phalloidin (Invitrogen) for 15 min and viewed by confocal fluorescence microscopy (TCS SP5, Leica).
Cell counting for spheres was performed with MetaMorph software. The cell number was determined from DAPI- or Hoechst-positive nuclei. […] For explants, inner hair cells, outer hair cells, and supporting cells in the outer hair cell region were counted on cochlear whole mounts. […] High-power images of the full-length cochlea or cochlear explant cultures were assembled and analyzed in PhotoShop CS4 (Adobe). […] Density (cells per 100 μm) was then calculated for each segment. […]

[2] = tested on: noise-damaged cochlea; assay: Hair cell number after systemic LY411575 in noise-damaged mice; assay type: in vivo, mouse; details: oral 50 mg/kg for 5 d
Description: (§1) 4-week-old mice were exposed free-field, awake and unrestrained, in a small reverberant chamber (22). Acoustic trauma was produced by a 2 h exposure to an 8-16 kHz octave band noise presented at 116 dB SPL. The exposure stimulus was generated by a custom white-noise source, filtered (Brickwall Filter with a 60 dB/octave slope), amplified (Crown power amplifier), and delivered (JBL compression driver) through an exponential horn fitted securely to a hole in the top of a reverberant box.
For systemic administration, LY411575 (50 mg/kg) dissolved in 0.5% (wt/vol) methylcellulose (WAKO) was injected orally once daily for 5 consecutive d. Hearing was measured by ABR at 1 d before, 2 d, 1, 2 week, 1, 2 and 3 months after noise exposure.
(§2) For collection of mature mouse cochleae, after being deeply anesthetized with ketamine and xylazine, the mice were transcardially perfused with 0.01 M phosphate buffer (pH 7.4) containing 8.6% sucrose, followed by fixative consisting of freshly depolymerized 4% paraformaldehyde in 0.1 M phosphate buffer (pH 7.4). […] Primary antibodies were detected with secondary antibodies conjugated with Alexa 488, 568, and 647 (Molecular Probes) and viewed by confocal fluorescence microscopy (TCS SP5, Leica). […]
Cell counting for spheres was performed with MetaMorph software. The cell number was determined from DAPI- or Hoechst-positive nuclei. […]

[3] = tested on: deafened mature cochlea; assay: Hair cell and supporting cell counts in deafened mature cochlea after round window administration; assay type: in vivo, mouse
Description: as §1
4-week-old mice weighing 12 to 16 g were used. Before surgery, the animals were anesthetized with ketamine (20 mg/kg, i.p.) and xylazine (100 mg/kg, i.p.), and an incision was made posterior to the pinna near the external meatus after local administration of lidocaine (1%). The otic bulla was opened to approach the round window niche. The end of a piece of PE 10 tubing (Becton Dickinson) was drawn to a fine tip in a flame and gently inserted into the round window niche. LY411575 was dissolved in DMSO and diluted 10-fold in polyethylene glycol 400 (Sigma) to a final concentration of 4 mM. This solution (total volume 1 μl) was injected into the round window niche of the left ear. Polyethylene glycol 400 with 10% DMSO was injected into the right ear as a control. The solution was administered for 2 min. This approach is presently used clinically (e.g. transtympanic injection of steroids for sudden hearing loss and gentamicin for severe balance disorders) and has the advantage of sparing the […] but still taking advantage of the local route provided by the round window membrane for delivery of drug into the inner ear (50). Gelatin was placed on the niche to maintain the solution, and the wound was closed.
as §2, with “7.4). After decapitation, the temporal bones were removed and immediately placed in the same fixative at 4° C. Small openings were made at the round window, oval window, and apex of the cochlea.” for “7.4).”
Cell counting for spheres was performed with MetaMorph software. The cell number was determined from DAPI- or Hoechst-positive nuclei. […] For explants, inner hair cells, outer hair cells, and supporting cells in the outer hair cell region were counted on cochlear whole mounts. […]

Compound: C[C@H](NC(=O)[C@@H](O)c1cc(F)cc(F)c1)C(=O)N[C@@H]1C(=O)N(C)c2ccccc2-c2ccccc21 [LY411575, N-2((2S)-2-(3,5-difluorophenyl)-2-hydroxyethanoyl)-N1-((7S)-5-methyl-6-oxo-6,7-dihydro-5H-dibenzo[b,d]azepin-7-yl)-l-alaninamide]
- increase in number of myosin VIIa-positive cells in the outer hair cell region compared to the control ([1]; LY411575 1 μM, 72 h, p<0.05): 30 cells/100 μm
- number of hair cells in wild-type organ of Corti (Wt) ([1]; apex, mid-apex and mid-base, cultured 3 d): Increased
- outer hair cell numbers [2]: increased
- numbers of inner hair cells ([3]; 3 months, treated group): no significant changes
- number of outer hair cells compared to carrier-treated contralateral ear ([3]; 3 months, 8-16 kHz, p<0.05): increased
- number of supporting cells in the outer hair cell region compared to carrier-treated ear ([3]; 3 months, 8 and 11.3 kHz areas, p<0.05): decreased significantly
- outer hair cells in the most basal regions ([3]; above 22 kHz, with and without LY411575): completely absent
